This note sets out measurements from US9394264B2 (Receptos, Inc., priority 2009, dated 2016).

Molecules are shown by their SMILES.

The target of the assay is S1P1/EDG1 (Homo sapiens, UniProt P21453). The assay is described as follows: S1P1 CRE-bla CHOK1 reporter assay (inhibition of Forskolin induced cAMP). Format: cell-based. The following applies: agonist activity range, S1P1 CRE-bla CHOK1 cells, 2 μM Forskolin; read-out: S1P1 ACTIVITY
Sequence of S1P1/EDG1 (P21453 whole entry): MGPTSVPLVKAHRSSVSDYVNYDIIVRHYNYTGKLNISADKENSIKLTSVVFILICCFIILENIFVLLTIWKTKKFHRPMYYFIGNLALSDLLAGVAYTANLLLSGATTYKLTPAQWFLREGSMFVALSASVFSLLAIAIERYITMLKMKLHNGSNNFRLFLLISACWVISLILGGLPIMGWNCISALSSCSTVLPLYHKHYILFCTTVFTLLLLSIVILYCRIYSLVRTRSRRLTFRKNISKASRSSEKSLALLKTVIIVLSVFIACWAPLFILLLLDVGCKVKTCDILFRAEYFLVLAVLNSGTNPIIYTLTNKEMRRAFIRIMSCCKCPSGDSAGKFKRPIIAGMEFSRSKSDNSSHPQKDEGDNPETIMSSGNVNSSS
From the text:
A mammalian expression plasmid containing S1P1/EDG1 cloned into pcDNA3.1 was purchased from Missouri S&T cDNA Resource Centre. The nucleotide and amino acid sequence of human S1P1/EDG1 are published in Hla and Maciag (J Biol Chem, 265(1990), 9308-9313). S1P1/pcDNA3.1 was transfected into the CRE-bla CHO K1 (Invitrogen) cell line, and stable single cell clones were selected using standard techniques. Expression of functional S1P1/EDG1 receptor was confirmed by cell surface FACS with a S1P1 antibody (R&D Systems, clone 218713) and S1P-mediated inhibition of Forskolin induced cAMP.
Cells were seeded into 384-well black wall/clear bottom plates at 10^4 cells/well/19.5 μl assay media (DMEM-phenol free, 0.5% charcoal/dextran stripped serum, 2 mM glutamine, 0.1 mM NEAA, 1 mM Na-Pyruvate, 25 mM Hepes) and incubated for 18 hrs at 37° C. in 5% CO2. Dose response curves (10-point) were generated in 10 mM Hepes, 0.1% Pluronic F127, in the presence of Forskolin. Cells were treated with 0.5 μl compound in the presence of 2 μM Forskolin for 4 hrs at 37° C. The FRET-based β-lactamase fluorescent substrate (LiveBLAzer™-FRET B/G Loading Kit CC4-AM; Invitrogen) was prepared according to manufacturer's directions, and incubated with cells for 2 hrs at room temperature. Plates were read at Ex:410/Em:458 and Ex:410/Em:522, and the response ratio determined. Data was analyzed by non-linear regression to determine the EC50 for inhibition of Forskolin induced cAMP.
For the molecule `CC(C)Oc1ccc(-c2nc(-c3cccc4c3CCC[C@H]4O)no2)cc1C#N` [Compound 1, (R)-5-(3-(5-hydroxy-5,6,7,8-tetrahydronaphthalen-1-yl)-1,2,4-oxadiazol-5-yl)-2-isopropoxybenzonitrile], the EC50 was in the range of 0.05 to 0.5 nM. To `CC(C)Oc1ccc(-c2nc(-c3cccc4c3CCC[C@@H]4O)no2)cc1C#N` [Compound 2, (S)-5-(3-(5-hydroxy-5,6,7,8-tetrahydronaphthalen-1-yl)-1,2,4-oxadiazol-5-yl)-2-isopropoxybenzonitrile] belongs below 0.05 nM; to `CC(C)Oc1ccc(-c2nc(-c3cccc4c3CCC[C@H]4N)no2)cc1C#N` [Compound 3, (R)-5-(3-(5-amino-5,6,7,8-tetrahydronaphthalen-1-yl)-1,2,4-oxadiazol-5-yl)-2-isopropoxybenzonitrile], 0.5 to 5 nM. In the case of `CC(C)Oc1ccc(-c2nc(-c3cccc4c3CCC[C@@H]4N)no2)cc1C#N` [Compound 4, (S)-5-(3-(5-amino-5,6,7,8-tetrahydronaphthalen-1-yl)-1,2,4-oxadiazol-5-yl)-2-isopropoxybenzonitrile], the EC50 was 0.05 to 0.5 nM. The figure for `CC(C)Oc1ccc(-c2nc(-c3cccc4c3CCC[C@H]4NC(=O)N(C)C)no2)cc1C#N` [Compound 5] is 0.05 to 0.5 nM; for `CC(C)Oc1ccc(-c2nc(-c3cccc4c3CCC[C@@H]4NC(=O)N(C)C)no2)cc1C#N` [Compound 6] it is 0.05 to 0.5 nM; for `CC(C)Oc1ccc(-c2nc(-c3cccc4c3CCC[C@H]4NC(=O)N3CC(O)C3)no2)cc1C#N` [Compound 7, (R)-N-(5-(5-(3-cyano-4-isopropoxyphenyl)-1,2,4-oxadiazol-3-yl)-1,2,3,4-tetrahydronaphthalen-1-yl)-3-hydroxyazetidine-1-carboxamide] it is 0.05 to 0.5 nM. For the molecule `CC(C)Oc1ccc(-c2nc(-c3cccc4c3CCC[C@@H]4NC(=O)N3CC(C(=O)O)C3)no2)cc1C#N` [Compound 9], the EC50 fell in the range of 0.05 to 0.5 nM.

Turning to `CC(C)Oc1ccc(-c2nc(-c3cccc4c3CCC[C@H]4NC(=O)N3CC(C(=O)O)C3)no2)cc1C#N` [Compound 10], the EC50 was 0.05 to 0.5 nM. For `CC(C)Oc1ccc(-c2nc(-c3cccc4c3CCC[C@H]4NC(=O)N3CCCC3)no2)cc1C#N` [Compound 11], the EC50 is 0.05 to 0.5 nM. The figure for `CC(C)Oc1ccc(-c2nc(-c3cccc4c3CCC[C@@H]4NC(=O)N3CCCC3)no2)cc1C#N` [Compound 12, (S)-N-(5-(5-(3-cyano-4-isopropoxyphenyl)-1,2,4-oxadiazol-3-yl)-1,2,3,4-tetrahydronaphthalen-1-yl)pyrrolidine-1-carboxamide] is 0.05 to 0.5 nM. To `CC(C)Oc1ccc(-c2nc(-c3cccc4c3CCC[C@@H]4NC(=O)N3CC[C@H](O)C3)no2)cc1C#N` [Compound 14] belongs 0.05 to 0.5 nM; to `CC(C)Oc1ccc(-c2nc(-c3cccc4c3CCC[C@@H]4NC(=O)N3CCOCC3)no2)cc1C#N` [Compound 15, (S)-N-(5-(5-(3-cyano-4-isopropoxyphenyl)-1,2,4-oxadiazol-3-yl)-1,2,3,4-tetrahydronaphthalen-1-yl)morpholine-4-carboxamide], 0.05 to 0.5 nM; to `CC(C)Oc1ccc(-c2nc(-c3cccc4c3CCC[C@H]4NC(=O)N3CCOCC3)no2)cc1C#N` [Compound 16], 0.5 to 5 nM. To `CC(C)Oc1ccc(-c2nc(-c3cccc4c3CCC[C@@H]4NC(=O)N3CCC[C@H](O)C3)no2)cc1C#N` [Compound 17] belongs 0.5 to 5 nM. `CC(C)Oc1ccc(-c2nc(-c3cccc4c3CCC[C@H]4NC(=O)N3CCC[C@H](O)C3)no2)cc1C#N` [Compound 18]: the EC50 is 0.5 to 5 nM. Regarding `CC(C)Oc1ccc(-c2nc(-c3cccc4c3CCC[C@H]4NC(=O)N3CCC(O)CC3)no2)cc1C#N` [Compound 19], the EC50 lay within 0.5 to 5 nM.

Take `CC(C)Oc1ccc(-c2nc(-c3cccc4c3CCC[C@H]4NC(=O)N3CC[C@@H](N(C)C)C3)no2)cc1C#N` [Compound 20, (R)-N-((R)-5-(5-(3-cyano-4-isopropoxyphenyl)-1,2,4-oxadiazol-3-yl)-1,2,3,4-tetrahydronaphthalen-1-yl)-3-(dimethylamino)pyrrolidine-1-carboxamide]: the EC50 lay in the range of 0.5 to 5 nM. The figure for `CC(=O)N[C@@H]1CCCc2c(-c3noc(-c4ccc(OC(C)C)c(C#N)c4)n3)cccc21` [Compound 21, (R)-N-(5-(5-(3-cyano-4-isopropoxyphenyl)-1,2,4-oxadiazol-3-yl)-1,2,3,4-tetrahydronaphthalen-1-yl)acetamide] is 0.05 to 0.5 nM; for `CC(=O)N[C@H]1CCCc2c(-c3noc(-c4ccc(OC(C)C)c(C#N)c4)n3)cccc21` [Compound 22, (S)-N-(5-(5-(3-cyano-4-isopropoxyphenyl)-1,2,4-oxadiazol-3-yl)-1,2,3,4-tetrahydronaphthalen-1-yl)acetamide] it is 0.05 to 0.5 nM. To `COCC(=O)N[C@@H]1CCCc2c(-c3noc(-c4ccc(OC(C)C)c(C#N)c4)n3)cccc21` [Compound 23] belongs 0.5 to 5 nM. The figure for `COCC(=O)N[C@H]1CCCc2c(-c3noc(-c4ccc(OC(C)C)c(C#N)c4)n3)cccc21` [Compound 24] is 0.05 to 0.5 nM; for `CC(C)Oc1ccc(-c2nc(-c3cccc4c3CCC[C@H]4NC(=O)CN(C)C)no2)cc1C#N` [Compound 25] it is 0.5 to 5 nM.

Take `CC(C)Oc1ccc(-c2nc(-c3cccc4c3CCC[C@H]4NS(N)(=O)=O)no2)cc1C#N` [Compound 26, (R)-N-(5-(5-(3-cyano-4-isopropoxyphenyl)-1,2,4-oxadiazol-3-yl)-1,2,3,4-tetrahydronaphthalen-1-yl)sulfamide]: the EC50 was 0.05 to 0.5 nM.

`CC(C)Oc1ccc(-c2nc(-c3cccc4c3CCC[C@@H]4NS(N)(=O)=O)no2)cc1C#N` [Compound 27, (S)-N-(5-(5-(3-cyano-4-isopropoxyphenyl)-1,2,4-oxadiazol-3-yl)-1,2,3,4-tetrahydronaphthalen-1-yl)sulfamide]: the EC50 is below 0.05 nM.

With `CC(C)Oc1ccc(-c2nc(-c3cccc4c3CCC[C@H]4NS(C)(=O)=O)no2)cc1C#N` [Compound 28, (R)-N-(5-(5-(3-cyano-4-isopropoxyphenyl)-1,2,4-oxadiazol-3-yl)-1,2,3,4-tetrahydronaphthalen-1-yl)methanesulfonamide], the EC50 fell in the range of 0.05 to 0.5 nM.

Turning to `CC(C)Oc1ccc(-c2nc(-c3cccc4c3CCC[C@H]4NS(=O)(=O)C3CC3)no2)cc1C#N` [Compound 30], the EC50 is 0.05 to 0.5 nM. The figure for `CC(C)Oc1ccc(-c2nc(-c3cccc4c3CCC[C@@H]4NS(=O)(=O)C3CC3)no2)cc1C#N` [Compound 31] is 0.5 to 5 nM.

As for `COCCS(=O)(=O)N[C@@H]1CCCc2c(-c3noc(-c4ccc(OC(C)C)c(C#N)c4)n3)cccc21` [Compound 32, (R)-N-(5-(5-(3-cyano-4-isopropoxyphenyl)-1,2,4-oxadiazol-3-yl)-1,2,3,4-tetrahydronaphthalen-1-yl)-2-methoxyethanesulfonamide], the EC50 lay in the range of 0.05 to 0.5 nM. The figure for `CC(C)Oc1ccc(-c2nc(-c3cccc4c3CCC[C@H]4NS(=O)(=O)CC(=O)O)no2)cc1C#N` [Compound 34, (R)-2-(N-(5-(5-(3-cyano-4-isopropoxyphenyl)-1,2,4-oxadiazol-3-yl)-1,2,3,4-tetrahydronaphthalen-1-yl)sulfamoyl)acetic acid] is below 0.05 nM; for `CC(C)Oc1ccc(-c2nc(-c3cccc4c3CCC[C@@H]4NS(=O)(=O)CC(=O)O)no2)cc1C#N` [Compound 35, (S)-2-(N-(5-(5-(3-cyano-4-isopropoxyphenyl)-1,2,4-oxadiazol-3-yl)-1,2,3,4-tetrahydronaphthalen-1-yl)sulfamoyl)acetic acid] it is below 0.05 nM; for `CC(C)Oc1ccc(-c2nc(-c3cccc4c3CCC[C@@H]4NS(=O)(=O)CCO)no2)cc1C#N` [Compound 36, (S)-N-(5-(5-(3-cyano-4-isopropoxyphenyl)-1,2,4-oxadiazol-3-yl)-1,2,3,4-tetrahydronaphthalen-1-yl)-2-hydroxyethanesulfonamide] it is below 0.05 nM.

Turning to `CC(C)Oc1ccc(-c2nc(-c3cccc4c3CCC[C@@H]4NS(=O)(=O)CC(N)=O)no2)cc1C#N` [Compound 38], the EC50 is below 0.05 nM.

Take `CC(C)Oc1ccc(-c2nc(-c3cccc4c3CCC[C@H]4NS(=O)(=O)CC(N)=O)no2)cc1C#N` [Compound 39]: the EC50 was below 0.05 nM. As for `CC(C)Oc1ccc(-c2nc(-c3cccc4c3CCC[C@H]4NS(=O)(=O)CC(=O)N(C)C)no2)cc1C#N` [Compound 40, (R)-2-(N-(5-(5-(3-cyano-4-isopropoxyphenyl)-1,2,4-oxadiazol-3-yl)-1,2,3,4-tetrahydronaphthalen-1-yl)sulfamoyl)-N,N-dimethylacetamide], the EC50 was below 0.05 nM.

In the case of `CC(C)Oc1ccc(-c2nc(-c3cccc4c3CCC[C@@H]4NS(=O)(=O)CC(=O)N(C)C)no2)cc1C#N` [Compound 41, (S)-2-(N-(5-(5-(3-cyano-4-isopropoxyphenyl)-1,2,4-oxadiazol-3-yl)-1,2,3,4-tetrahydronaphthalen-1-yl)sulfamoyl)-N,N-dimethylacetamide], the EC50 is below 0.05 nM. To `CC(C)Oc1ccc(-c2nc(-c3cccc4c3CCC[C@@H]4NS(=O)(=O)CC(=O)N3CCC3)no2)cc1C#N` [Compound 42] belongs below 0.05 nM.
